Measurements taken from US5843889A, “Glycopeptide antibiotic derivatives” (Eli Lilly and Company, priority 1997, dated 1998).
Converted amounts (≈) assume the structure as drawn.

Key:
Type in all cases: cell-based
[1] = test system: Entercoccus faecalis 2041; assay: MIC, standard broth micro-dilution assay
Method: (§1) The formula I compounds have in vitro and in vivo activity against Gram-positive pathogenic bacteria. The MIC's were determined using a standard broth micro-dilution assay.

Entercoccus faecalis 276 = assay: MIC, standard broth micro-dilution assay
Method: as §1

[2] = test system: Entercoccus gallinarum 245; assay: MIC, standard broth micro-dilution assay
Method: as §1

[3] = test system: vancomycin-resistant enterococci (Enterococcus faecium and Enterococcus faecalis); assay: mean geometric MIC, broth micro-dilution; settings: 24-hour incubation
[4] = test system: vancomycin-susceptibie enterococci (Enterococcus faecium and Enterococcus faecalis); assay: mean geometric MIC, broth micro-dilution; settings: 24-hour incubation
[5] = test system: Entercoccus faecium 180-1; assay: MIC, standard broth micro-dilution assay
Method: (§2) The MIC's were determined using a standard broth micro-dilution assay.

Entercoccus faecium 180 = assay: MIC, standard broth micro-dilution assay
Method: as §2

Escherichia coli EC14 = assay: MIC, standard broth micro-dilution assay
Method: as §2

[6] = test system: Staphylococcus aureus 446; assay: MIC, standard broth micro-dilution assay
Method: as §2

[7] = test system: Staphylococcus aureus 447; assay: MIC, standard broth micro-dilution assay
Method: as §2

[8] = test system: Staphylococcus aureus 489; assay: MIC, standard broth micro-dilution assay
Method: as §2

[9] = test system: Staphylococcus aureus 491; assay: MIC, standard broth micro-dilution assay
Method: as §2

[10] = test system: Staphylococcus aureus SA1199A; assay: MIC, standard broth micro-dilution assay
Method: as §2

[11] = test system: Staphylococcus aureus SA1199; assay: MIC, standard broth micro-dilution assay
Method: as §2

[12] = test system: Staphylococcus aureus X400; assay: MIC, standard broth micro-dilution assay
Method: as §2

[13] = test system: Staphylococcus aureus X778; assay: MIC, standard broth micro-dilution assay
Method: as §2

[14] = test system: Staphylococcus epidermidis 270; assay: MIC, standard broth micro-dilution assay
Method: as §2

[15] = test system: Staphylococcus haemolyticus 105; assay: MIC, standard broth micro-dilution assay
Method: as §2

[16] = test system: Staphylococcus haemolyticus 415; assay: MIC, standard broth micro-dilution assay
Method: as §2

[17] = test system: Streptococcus pneumoniae P1; assay: MIC, standard broth micro-dilution assay
Method: as §2

[18] = test system: Streptococcus pyogenes C203; assay: MIC, standard broth micro-dilution assay
Method: as §2

[19] = test system: Staphylococcus aureus S13E
Method: as §2

[20] = test system: Staphylococcus aureus SA1199B
Method: as §2

Pedicoccus acidilacti = assay: MIC, agar dilution on brain-heart infusion agar; settings: Pedioccccus acidilacti (mean of 10)
Pediococcus pentosaceus = assay: MIC, agar dilution on brain-heart infusion agar; settings: Pediococcus pentosaceus (mean of 2)
Leuconostoc lactis = assay: MIC, agar dilution on brain-heart infusion agar; settings: Leuconostoc lactis (mean of 2)
[21] = test system: Leuconostoc mesenteroides; assay: MIC, agar dilution on brain-heart infusion agar; settings: Leuconostoc mesenteroides (mean of 4)
Lactobacillus confusus = assay: MIC, agar dilution on brain-heart infusion agar
[22] = test system: Leuconostoc pseudomesenteroides; assay: MIC, agar dilution on brain-heart infusion agar
Leuconostoc citreum = assay: MIC, agar dilution on brain-heart infusion agar

SMILES | MIC [1] [µg/mL] | MIC (Entercoccus faecalis 276) [µg/mL] | MIC [2] [µg/mL] | MIC [5] [µg/mL] | MIC (Entercoccus faecium 180) [µg/mL] | MIC (Escherichia coli EC14) [µg/mL] | MIC [6] [µg/mL] | MIC [7] [µg/mL] | MIC [8] [µg/mL] | MIC [9] [µg/mL] | MIC [10] [µg/mL] | MIC [11] [µg/mL] | MIC [12] [µg/mL] | MIC [13] [µg/mL] | MIC [18] [µg/mL] | MIC (Pedicoccus acidilacti) [µg/mL] | MIC (Pediococcus pentosaceus) [µg/mL] | MIC (Leuconostoc lactis) [µg/mL] | MIC [21] [µg/mL] | MIC (Lactobacillus confusus) [µg/mL] | also measured
CNC(CC(C)C)C(=O)NC1C(=O)NC(CC(N)=O)C(=O)NC2C(=O)NC3C(=O)NC(C(=O)NC(C(=O)O)c4cc(O)cc(O)c4-c4cc3ccc4O)C(OC3CC(C)(N)C(O)C(C)O3)c3ccc(c(Cl)c3)Oc3cc2cc(c3OC2OC(CO)C(O)C(O)C2OC2CC(C)(NCc3cccc(Oc4cccc(C(F)(F)F)c4)c3)C(O)C(C)O2)Oc2ccc(cc2Cl)C1O (stereo not shown) [Compound 111] | ≤ 0.06 | 0.5 (≈ 0.271 µM) | 4 (≈ 2.17 µM) |  |  |  |  |  |  |  |  |  |  |  |  |  |  |  |  |  | mean geometric MIC, Vancomycin Resistant Strains [3]: 0.84 µg/mL; mean geometric MIC, Vancomycin Sensitive Strains [4]: 0.054 µg/mL
CNC(CC(C)C)C(=O)NC1C(=O)NC(CC(N)=O)C(=O)NC2C(=O)NC3C(=O)NC(C(=O)NC(C(=O)O)c4cc(O)cc(O)c4-c4cc3ccc4O)C(OC3CC(C)(N)C(O)C(C)O3)c3ccc(c(Cl)c3)Oc3cc2cc(c3OC2OC(CO)C(O)C(O)C2OC2CC(C)(NCc3ccc(SC)cc3)C(O)C(C)O2)Oc2ccc(cc2Cl)C1O (stereo not shown) [Compound 41, 4-thiomethylbenzyl] | ≤ 0.06 | ≤ 0.06 | ≤ 0.06 | ≤ 0.06 | 0.25 (≈ 0.145 µM) | > 64 | 2 (≈ 1.16 µM) | 0.25 (≈ 0.145 µM) | ≤ 0.06 | 0.5 (≈ 0.289 µM) | ≤ 0.06 | ≤ 0.06 | ≤ 0.06 | 0.125 (≈ 0.0723 µM) | ≤ 0.06 | 71 (≈ 41.1 µM) | 91 (≈ 52.6 µM) | 91 (≈ 52.6 µM) | 91 (≈ 52.6 µM) | 64 (≈ 37 µM) | MIC [14]: 0.25 µg/mL (≈ 0.145 µM); MIC [15]: 2 µg/mL (≈ 1.16 µM); MIC [16]: 4 µg/mL (≈ 2.31 µM); MIC [17]: ≤ 0.06 µg/mL; MIC [19]: ≤ 0.06 µg/mL; MIC [20]: 0.25 µg/mL (≈ 0.145 µM)
CNC(CC(C)C)C(=O)NC1C(=O)NC(CC(N)=O)C(=O)NC2C(=O)NC3C(=O)NC(C(=O)NC(C(=O)O)c4cc(O)cc(O)c4-c4cc3ccc4O)C(OC3CC(C)(N)C(O)C(C)O3)c3ccc(c(Cl)c3)Oc3cc2cc(c3OC2OC(CO)C(O)C(O)C2OC2CC(C)(NCc3ccc(OC4CCCCC4)cc3)C(O)C(C)O2)Oc2ccc(cc2Cl)C1O (stereo not shown) [Compound 124, 4-cyclohexyloxybenzyl] | ≤ 0.06 | ≤ 0.06 | 1 (≈ 0.562 µM) |  |  |  |  |  |  |  |  |  |  |  |  | 20 (≈ 11.2 µM) | 16 (≈ 8.99 µM) | 16 (≈ 8.99 µM) | 16 (≈ 8.99 µM) | 16 (≈ 8.99 µM) | MIC [22]: 64 µg/mL (≈ 35.9 µM); MIC (Leuconostoc citreum): 64 µg/mL (≈ 35.9 µM)
CNC(CC(C)C)C(=O)NC1C(=O)NC(CC(N)=O)C(=O)NC2C(=O)NC3C(=O)NC(C(=O)NC(C(=O)O)c4cc(O)cc(O)c4-c4cc3ccc4O)C(OC3CC(C)(N)C(O)C(C)O3)c3ccc(c(Cl)c3)Oc3cc2cc(c3OC2OC(CO)C(O)C(O)C2OC2CC(C)(NCC(C)=Cc3ccc(C(C)(C)C)cc3)C(O)C(C)O2)Oc2ccc(cc2Cl)C1O (stereo not shown) [Compound 42, 2,3-[2-methyl-3-[4-t-butylphenyl]]propenyl] | 0.125 (≈ 0.0703 µM) | 8 (≈ 4.5 µM) | 1 (≈ 0.562 µM) | ≤ 0.06 | 0.25 (≈ 0.141 µM) | > 64 | 1 (≈ 0.562 µM) | 0.5 (≈ 0.281 µM) | 0.5 (≈ 0.281 µM) | 0.5 (≈ 0.281 µM) | ≤ 0.06 | 1 (≈ 0.562 µM) | 1 (≈ 0.562 µM) | 1 (≈ 0.562 µM) | ≤ 0.06 |  |  |  |  |  | MIC [14]: 0.5 µg/mL (≈ 0.281 µM); MIC [15]: 2 µg/mL (≈ 1.12 µM); MIC [16]: 1 µg/mL (≈ 0.562 µM); MIC [17]: ≤ 0.06 µg/mL; MIC [19]: 0.5 µg/mL (≈ 0.281 µM); MIC [20]: 2 µg/mL (≈ 1.12 µM)
CCCCCOc1ccc(-c2ccc(CNC3(C)CC(OC4C(Oc5c6cc7cc5Oc5ccc(cc5Cl)C(OC5CC(C)(N)C(O)C(C)O5)C5NC(=O)C(NC(=O)C7NC(=O)C(CC(N)=O)NC(=O)C(NC(=O)C(CC(C)C)NC)C(O)c7ccc(c(Cl)c7)O6)c6ccc(O)c(c6)-c6c(O)cc(O)cc6C(C(=O)O)NC5=O)OC(CO)C(O)C4O)OC(C)C3O)cc2)cc1 (stereo not shown) [Compound 40, 4-[4-pentoxyphenyl]benzyl] | 1 (≈ 0.542 µM) | 2 (≈ 1.08 µM) | 11 (≈ 5.96 µM) | 2 (≈ 1.08 µM) | 1 (≈ 0.542 µM) | > 64 | 4 (≈ 2.17 µM) | 2 (≈ 1.08 µM) | 4 (≈ 2.17 µM) | 4 (≈ 2.17 µM) | 0.5 (≈ 0.271 µM) | 4 (≈ 2.17 µM) | 4 (≈ 2.17 µM) | 4 (≈ 2.17 µM) | ≤ 0.06 |  |  |  |  |  | MIC [14]: 1 µg/mL (≈ 0.542 µM); MIC [15]: 2 µg/mL (≈ 1.08 µM); MIC [16]: 2 µg/mL (≈ 1.08 µM); MIC [17]: ≤ 0.06 µg/mL; MIC [19]: 4 µg/mL (≈ 2.17 µM); MIC [20]: 8 µg/mL (≈ 4.34 µM)
CN[C@H](CC(C)C)C(=O)N[C@H]1C(=O)N[C@@H](CC(N)=O)C(=O)N[C@H]2C(=O)N[C@H]3C(=O)N[C@H](C(=O)N[C@H](C(=O)O)c4cc(O)cc(O)c4-c4cc3ccc4O)[C@H](O)c3ccc(c(Cl)c3)Oc3cc2cc(c3O[C@@H]2O[C@H](CO)[C@@H](O)[C@H](O)[C@H]2O[C@H]2C[C@](C)(N)[C@H](O)[C@H](C)O2)Oc2ccc(cc2Cl)[C@H]1O [vancomycin, reference compound] | 2 (≈ 1.38 µM) | 1 (≈ 0.69 µM) | 4 (≈ 2.76 µM) |  |  |  |  |  |  |  |  |  |  |  |  | 891 (≈ 615 µM) | 1024 (≈ 707 µM) | 1024 (≈ 707 µM) | 1024 (≈ 707 µM) | 1024 (≈ 707 µM) | MIC [22]: > 1024 µg/mL; MIC (Leuconostoc citreum): > 1024 µg/mL
CNC(CC(C)C)C(=O)NC1C(=O)NC(CC(N)=O)C(=O)NC2C(=O)NC3C(=O)NC(C(=O)NC(C(=O)O)c4cc(O)cc(O)c4-c4cc3ccc4O)C(OC3CC(C)(N)C(O)C(C)O3)c3ccc(c(Cl)c3)Oc3cc2cc(c3OC2OC(CO)C(O)C(O)C2OC2CC(C)(NCc3ccc(OCc4ccccc4)cc3)C(O)C(C)O2)Oc2ccc(cc2Cl)C1O (stereo not shown) [Compound 5, 4-benzyloxybenzyl] | ≤ 0.06 | ≤ 0.06 | ≤ 0.06 |  |  |  |  |  |  |  |  |  |  |  |  | 2.8 (≈ 1.57 µM) | 8.0 (≈ 4.47 µM) | 8.0 (≈ 4.47 µM) | 8 (≈ 4.47 µM) | 16 (≈ 8.95 µM) | MIC [22]: 16 µg/mL (≈ 8.95 µM); MIC (Leuconostoc citreum): 64 µg/mL (≈ 35.8 µM)
CCCCCCCCCCCCOc1ccc(CNC2(C)CC(OC3C(Oc4c5cc6cc4Oc4ccc(cc4Cl)C(OC4CC(C)(N)C(O)C(C)O4)C4NC(=O)C(NC(=O)C6NC(=O)C(CC(N)=O)NC(=O)C(NC(=O)C(CC(C)C)NC)C(O)c6ccc(c(Cl)c6)O5)c5ccc(O)c(c5)-c5c(O)cc(O)cc5C(C(=O)O)NC4=O)OC(CO)C(O)C3O)OC(C)C2O)cc1 (stereo not shown) [Compound 10, 4-dodecyloxybenzyl] |  | 18 (≈ 9.64 µM) | 8 (≈ 4.29 µM) |  |  |  |  |  |  |  |  |  |  |  | 0.5 (≈ 0.268 µM) |  |  |  |  |  | 
